This is an account of results in patent US8957074B2 (Novartis AG, priority 2010, dated 2015).

One test addresses CDK4/cyclin D1 (Homo sapiens (Human), UniProt P11802). Put plainly: CDK4/cyclin D1 enzymatic activity assay (TR-FRET, phosphorylation of pRb at Ser780). Type of test: biochemical. In outline:
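Phosphorylation at pRb Ser780, detected by TR-FRET, gave IC50s and kinetics. Enzyme: baculovirus/Sf21-expressed human CDK4/cyclin D1. ATP at 3 μM initiated the reaction; EDTA (pH 8.0) stopped it after 60 min at 22° C.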
On the technique in general: TR-FRET usually uses a lanthanide donor and a delayed reading to cut background.

In test [1] the test system is phosphorylation of pRb at the Ser780 site in JeKo-1 mantle cell lymphoma cells. In words: CDK4 cellular assay: ELISA of pRb phosphorylation at Ser780 in JeKo-1 cells. Type of test: cell-based. The conditions noted are these: Homo sapiens. A general note: An ELISA detects its analyte on a solid surface through an enzyme-linked reagent.
The target of the next test is CDK1/cyclin B (Homo sapiens (Human), UniProt P06493). Put plainly: CDK1/cyclin B enzymatic activity assay (IMAP-FP). Type of test: biochemical. The settings on record: 100 nM Tamra Histone-H1 peptide, 20 μM ATP, 120 min at room temperature, read-out: Biochemical CDK1 enzyme IC50. From the text: CDK1/Cyclin B Enzymatic Activity Assay
A 384-well microtiter IMAP-FP™ (Molecular Devices Trade Mark Technology) endpoint assay was used for CDK1/cyclin B kinase activity measurements. The same assay was used for IC50 determination of small molecule inhibitors.

Where [2] appears, read: 0.3 nM CDK4/cyclin D1, 150 nM biotin-pRb (773-924), 3 μM ATP, 60 min at 22° C., read-out: Biochemical CDK4 enzyme IC50.
Where [3] appears, read: JeKo-1 cells, p-pRb % inhibition adjusted with total pRb levels, read-out: Normalized cellular ppRb inhibition IC50.
Setting [4] is: JeKo-1 cells, p-pRb Ser780 ELISA, non-normalized, read-out: Cellular ppRb inhibition IC50.
Where [5] appears, read: JeKo-1, JeKo-1 cells, p-pRb % inhibition adjusted with total pRb levels, read-out: Normalized cellular ppRb inhibition IC50.
Where [6] appears, read: JeKo-1, JeKo-1 cells, p-pRb Ser780 ELISA, non-normalized, read-out: Cellular ppRb inhibition IC50.

Like-named read-outs stand apart in the source and are kept apart here.

By IC50 is commonly meant the concentration at which inhibition is half-maximal.

CDK1/cyclin B, sequence (P06493 whole entry, species assumed): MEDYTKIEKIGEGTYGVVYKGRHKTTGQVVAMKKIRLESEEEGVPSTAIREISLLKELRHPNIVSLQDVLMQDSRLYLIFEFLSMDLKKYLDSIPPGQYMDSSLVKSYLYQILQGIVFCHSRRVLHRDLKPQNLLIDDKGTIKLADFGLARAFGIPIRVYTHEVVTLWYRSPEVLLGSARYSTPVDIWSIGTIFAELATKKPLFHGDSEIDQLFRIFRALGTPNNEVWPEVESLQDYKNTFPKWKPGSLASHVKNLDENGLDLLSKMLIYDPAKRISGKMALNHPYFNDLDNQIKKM
CDK1/cyclin B, sequence (P14635 whole entry partner, species assumed): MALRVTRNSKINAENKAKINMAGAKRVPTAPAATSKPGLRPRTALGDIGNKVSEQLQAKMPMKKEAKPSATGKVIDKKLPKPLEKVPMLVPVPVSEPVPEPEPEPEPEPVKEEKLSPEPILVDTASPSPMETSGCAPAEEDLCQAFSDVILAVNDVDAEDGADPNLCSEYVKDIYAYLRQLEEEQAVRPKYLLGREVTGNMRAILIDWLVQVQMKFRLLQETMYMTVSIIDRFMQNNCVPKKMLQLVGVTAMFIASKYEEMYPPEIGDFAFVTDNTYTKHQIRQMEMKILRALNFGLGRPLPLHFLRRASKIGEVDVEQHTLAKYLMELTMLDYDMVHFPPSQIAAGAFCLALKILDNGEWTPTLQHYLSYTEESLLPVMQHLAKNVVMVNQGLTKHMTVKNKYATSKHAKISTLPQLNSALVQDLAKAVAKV
CDK4/cyclin D1, sequence (P11802 whole entry): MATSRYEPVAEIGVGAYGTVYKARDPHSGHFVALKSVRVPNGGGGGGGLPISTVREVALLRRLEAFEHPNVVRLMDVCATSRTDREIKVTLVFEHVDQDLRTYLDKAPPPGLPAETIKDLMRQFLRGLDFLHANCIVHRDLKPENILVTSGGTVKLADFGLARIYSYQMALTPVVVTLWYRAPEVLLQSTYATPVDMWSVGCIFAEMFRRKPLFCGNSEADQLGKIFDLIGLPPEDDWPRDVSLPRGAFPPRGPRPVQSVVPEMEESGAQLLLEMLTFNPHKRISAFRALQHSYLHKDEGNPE
CDK4/cyclin D1, sequence (P24385 whole entry partner): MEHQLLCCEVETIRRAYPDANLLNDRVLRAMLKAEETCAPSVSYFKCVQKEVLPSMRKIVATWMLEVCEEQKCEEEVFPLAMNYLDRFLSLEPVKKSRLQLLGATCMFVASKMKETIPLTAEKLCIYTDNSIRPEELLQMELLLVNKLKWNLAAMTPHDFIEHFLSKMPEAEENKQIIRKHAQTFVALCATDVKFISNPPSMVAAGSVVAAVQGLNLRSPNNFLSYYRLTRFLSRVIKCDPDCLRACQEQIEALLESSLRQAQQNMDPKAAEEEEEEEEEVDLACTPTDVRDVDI

As for `CN(C)C(=O)c1cc2cnc(Nc3ccc(C(=O)N4CC5CC(C4)N(C)C5)cn3)nc2n1C1CCCC1` (centres unmarked) [Example 13, 7-Cyclopentyl-2-[5-(6-methyl-3,6-diaza-bicyclo[3.2.1]octane-3-carbonyl)-pyridin-2-ylamino]-7H-pyrrolo[2,3-d]pyrimidine-6-carboxylic acid dimethylamide], the IC50 is 6 nM on CDK4/cyclin D1 (setting [2]), 145 nM in test [1] (setting [3]), 65 nM in test [1] (setting [4]) and 8440 nM at CDK1/cyclin B ([…] CDK1/cyclin B).
`CN(C)C(=O)c1cc2cnc(Nc3ccc(N4CC5CCC(C4)N5)nn3)nc2n1C1CCCCC1` [Example 126, 7-Cyclohexyl-2-[6-(3,8-diaza-bicyclo[3.2.1]oct-3-yl)-pyridazin-3-ylamino]-7H-pyrrolo[2,3-d]pyrimidine-6-carboxylic acid dimethylamide]: the IC50 was 10 to 31 nM at CDK4/cyclin D1 (setting [2]), 45 to 49 nM in test [1] (setting [5]), 23 to 32 nM in test [1] (setting [6]) and over 15000 nM on CDK1/cyclin B ([…] CDK1/cyclin B).
The matching figures for `CN(C)C(=O)c1cc2cnc(Nc3ccc(C(=O)N4CC5CC5(N)C4)cn3)nc2n1C1CCCC1` (racemic) [Example 14, 2-[5-(1-Amino-3-aza-bicyclo[3.1.0]hexane-3-carbonyl)-pyridin-2-ylamino]-7-cyclopentyl-7H-pyrrolo[2,3-d]pyrimidine-6-carboxylic acid dimethylamide]: 19 nM, 371 nM, 133 nM and over 15000 nM.
For `CN(C)C(=O)c1cc2cnc(Nc3ccc(N4C[C@H]5CC[C@@H](CC4=O)N5)cn3)nc2n1C1CCC1` [Example 136, 7-Cyclobutyl-2-[5-((1R,6S)-4-oxo-3,9-diaza-bicyclo[4.2.1]non-3-yl)-pyridin-2-ylamino]-7H-pyrrolo[2,3-d]pyrimidine-6-carboxylic acid dimethylamide], the IC50 is 54 nM on CDK4/cyclin D1 (setting [2]), 218 nM in test [1] (setting [5]), 77 nM in test [1] (setting [6]) and over 15000 nM on CDK1/cyclin B ([…] CDK1/cyclin B).
For `CN(C)C(=O)c1cc2cnc(Nc3ccc(N4CC5CCC(CC4=O)N5)cn3)nc2n1C1CCC1` (centres unmarked) [Example 134, 7-Cyclobutyl-2-[5-(4-oxo-3,9-diaza-bicyclo[4.2.1]non-3-yl)-pyridin-2-ylamino]-7H-pyrrolo[2,3-d]pyrimidine-6-carboxylic acid dimethylamide] the same measures were 8 nM, 123 nM, 66 nM and over 15000 nM.
Consider `CN(C)C(=O)c1cc2cnc(Nc3ccc(N4C[C@H]5CC[C@@H](CC4=O)N5)cn3)nc2n1C1CCCCC1` [Example 133, 7-Cyclohexyl-2-[5-((1R,6S)-4-oxo-3,9-diaza-bicyclo[4.2.1]non-3-yl)-pyridin-2-ylamino]-7H-pyrrolo[2,3-d]pyrimidine-6-carboxylic acid dimethylamide], for which the IC50 at CDK4/cyclin D1 (setting [2]) is under 5 nM; in test [1] (setting [5]), 7 nM; in test [1] (setting [6]) it was 5 nM; at CDK1/cyclin B ([…] CDK1/cyclin B) it was 13300 nM.
Regarding `CN(C)C(=O)c1cc2cnc(Nc3ccc(C(=O)N4CCN5CCC[C@@H]5C4)cn3)nc2n1C1CCCC1` [Example 21, 7-Cyclopentyl-2-[5-((R)-hexahydro-pyrrolo[1,2-a]pyrazine-2-carbonyl)-pyridin-2-ylamino]-7H-pyrrolo[2,3-d]pyrimidine-6-carboxylic acid dimethylamide], the IC50 on CDK4/cyclin D1 (setting [2]) is 47 nM; in test [1] (setting [5]) it was 401 nM; in test [1] (setting [6]) it was 187 nM; at CDK1/cyclin B ([…] CDK1/cyclin B), over 15000 nM.
For `CN(C)C(=O)c1cc2cnc(Nc3ccc(C(=O)N4CC5CCC(C4)N5C)cn3)nc2n1C1CCCC1` [Example 45, 7-cyclopentyl-2-[5-(8-methyl-3,8-diaza-bicyclo[3.2.1]octane-3-carbonyl)-pyridin-2-ylamino]-7H-pyrrolo[2,3-d]pyrimidine-6-carboxylic acid dimethylamide] the same measures were 14 to 24 nM, 64 nM, 64 nM and 12800 nM.
For the molecule `CN1C[C@@H]2CN(c3ccc(Nc4ncc5cc(C(=O)N(C)C)n(C6CCCC6)c5n4)nc3)C(=O)[C@@H]2C1` (stereo in doubt) [Example 95, 7-cyclopentyl-N,N-dimethyl-2-(5-((3aR,6aS)-5-methyl-1-oxohexahydropyrrolo[3,4-c]pyrrol-2(1H)-yl)pyridin-2-ylamino)-7H-pyrrolo[2,3-d]pyrimidine-6-carboxamide], the IC50 on CDK4/cyclin D1 (setting [2]) was 7 nM; in test [1] (setting [5]) it was 21 to 65 nM; in test [1] (setting [6]), 4 to 20 nM; at CDK1/cyclin B (0.25 nM CDK1/cyclin B), 14000 to 14300 nM.
`CN(C)C(=O)c1cc2cnc(Nc3ccc(C(=O)N4CC5CN(Cc6ccccc6)CC(C4)O5)cn3)nc2n1C1CCCC1` [Example 46, 2-[5-(7-Benzyl-9-oxa-3,7-diaza-bicyclo[3.3.1]nonane-3-carbonyl)-pyridin-2-ylamino]-7-cyclopentyl-7H-pyrrolo[2,3-d]pyrimidine-6-carboxylic acid dimethylamide]: the IC50 at CDK4/cyclin D1 (setting [2]) is 100 nM; in test [1] (setting [5]), 730 nM; in test [1] (setting [6]), 724 nM; on CDK1/cyclin B ([…] CDK1/cyclin B), over 15000 nM.
Turning to `CN(C)C(=O)c1cc2cnc(Nc3ccc(N4C[C@]5(CCCNC5)OC4=O)cn3)nc2n1C1CCCC1` [Example 110, 7-Cyclopentyl-2-[5-((R)-2-oxo-1-oxa-3,7-diaza-spiro[4.5]dec-3-yl)-pyridin-2-ylamino]-7H-pyrrolo[2,3-d]pyrimidine-6-carboxylic acid dimethylamide], the IC50 on CDK4/cyclin D1 (setting [2]) was 8 nM; in test [1] (setting [3]), 62 nM; in test [1] (setting [4]), 41 nM; on CDK1/cyclin B ([…] CDK1/cyclin B), over 15000 nM.
As for `CN(C)C(=O)c1cc2cnc(Nc3ccc(C(=O)N4CC5CCC(C4)N5CCO)cn3)nc2n1C1CCCC1` [Example 28, 7-cyclopentyl-2-(5-(8-(2-hydroxyethyl)-3,8-diazabicyclo[3.2.1]octane-3-carbonyl)pyridin-2-ylamino)-N,N-dimethyl-7H-pyrrolo[2,3-d]pyrimidine-6-carboxamide], the IC50 on CDK4/cyclin D1 (setting [2]) was 22 nM; in test [1] (setting [5]), 69 nM; in test [1] (setting [6]), 63 nM; at CDK1/cyclin B ([…] CDK1/cyclin B), over 15000 nM.
Consider `CN(C)C(=O)c1cc2cnc(Nc3ccc(C(=O)N4C[C@@H]5[C@@H](N)[C@@H]5C4)cn3)nc2n1C1CCCC1` [Example 42, 2-[5-((1S,5R,6S)-6-Amino-3-aza-bicyclo[3.1.0]hexane-3-carbonyl)-pyridin-2-ylamino]-7-cyclopentyl-7H-pyrrolo[2,3-d]pyrimidine-6-carboxylic acid dimethylamide], for which the IC50 was 15 nM on CDK4/cyclin D1 (setting [2]), 241 nM in test [1] (setting [3]), 86 nM in test [1] (setting [4]) and over 15000 nM at CDK1/cyclin B ([…] CDK1/cyclin B).
Turning to `CN(C)C(=O)c1cc2cnc(Nc3ccc(N4C[C@@H]5CNC[C@@H]5C4=O)cn3)nc2n1C1CCCC1` [Example 85, 7-cyclopentyl-N,N-dimethyl-2-(5-((3aS,6aR)-1-oxohexahydropyrrolo[3,4-c]pyrrol-2(1H)-yl)pyridin-2-ylamino)-7H-pyrrolo[2,3-d]pyrimidine-6-carboxamide], the IC50 at CDK4/cyclin D1 (setting [2]) lay in the range of 5 to 7 nM; in test [1] (setting [5]), 9 to 21 nM; in test [1] (setting [6]) it was 5 to 17 nM; on CDK1/cyclin B (0.25 nM CDK1/cyclin B), 8980 to 11200 nM.
As for `CN(C)C(=O)c1cc2cnc(Nc3ccc(C(=O)N4CC5CCC(C4)N5)cn3)nc2n1[C@H]1CC[C@H](C(C)(C)C)CC1` [Example 37, 7-(4-tert-Butyl-cyclohexyl)-2-[5-(3,8-diaza-bicyclo[3.2.1]octane-3-carbonyl)-pyridin-2-ylamino]-7H-pyrrolo[2,3-d]pyrimidine-6-carboxylic acid dimethylamide], the IC50 at CDK4/cyclin D1 is 5 to 6 nM; in test [1] (setting [5]), 288 to 438 nM; in test [1] (setting [6]), 121 to 301 nM; on CDK1/cyclin B ([…] CDK1/cyclin B), over 15000 nM.
Take `CN(C)C(=O)c1cc2cnc(Nc3ccc(C(=O)N4CC5CC5(N(C)C)C4)cn3)nc2n1C1CCCC1` (centres unmarked) [Example 17, 7-Cyclopentyl-2-[5-(1-dimethylamino-3-aza-bicyclo[3.1.0]hexane-3-carbonyl)-pyridin-2-ylamino]-7H-pyrrolo[2,3-d]pyrimidine-6-carboxylic acid dimethylamide]: the IC50 on CDK4/cyclin D1 (setting [2]) is 65 nM; in test [1] (setting [3]), 643 nM; in test [1] (setting [4]) it was 281 nM; at CDK1/cyclin B ([…] CDK1/cyclin B), over 15000 nM.
With `CN(C)C(=O)c1cc2cnc(Nc3ccc(N4CC5CCC(N5)C4=O)cn3)nc2n1C1CCCCCC1` (centres unmarked) [Example 80, 7-Cycloheptyl-2-[5-(2-oxo-3,8-diaza-bicyclo[3.2.1]oct-3-yl)-pyridin-2-ylamino]-7H-pyrrolo[2,3-d]pyrimidine-6-carboxylic acid dimethylamide], the IC50 against CDK4/cyclin D1 is 12 to 14 nM; in test [1] (setting [5]) it was 74 to 474 nM; in test [1] (setting [6]), 51 to 320 nM; on CDK1/cyclin B (0.25 nM CDK1/cyclin B), 14000 nM.
